This is an account of results in EPA's ToxValDB 9.5 (doi:10.2903/j.efsa.2015.4279).

A word on the NOAEL: it is the highest dose or exposure tested at which no adverse effect was seen.

One series relates to Typhlodromus pyri. The series can be described thus: LR50; higher = less toxic. The note with it: not reported; mortality.
In another series the test system is Canidae. The following applies: oral, Dog Other, hematological.
A further series deals with Oncorhynchus mykiss. The following applies: chronic/long-term; duration: 95 days; growth.
In a further series the test system is Colinus virginianus. The note with it: chronic.
Another series concerns Daphnia magna. The following applies: chronic/long-term; duration: 21 days; reproduction.
For the next series, the system named is Apis mellifera. The note with it: acute; oral; unspecified; mortality.
Another series has as its system Oryctolagus sp. The note with it: reproduction developmental; hematological.
A further series deals with Folsomia candida. The following applies: chronic/long-term.
The next series concerns Anas platyrhynchos. The following applies: acute; oral; unspecified; mortality.
Another series relates to Bibionidae. The note with it: chronic/long-term; duration: 28 days; development.

In turn, `O=C(Nc1ccc(F)cc1)c1cccc(Oc2cccc(C(F)(F)F)c2)n1` [Picolinafen] showed an LR50 in the series with Typhlodromus pyri greater than 100 g/ha. Moreover, the NOAEL with Canidae (chronic, duration: 1 years) is 1.4 mg/kg-day; in the series with Canidae (subchronic, duration: 90 days) it was 5.2 mg/kg-day; in the series on Rattus norvegicus (chronic), 4 mg/kg-day; in the series on Oryctolagus sp., 5 mg/kg-day. For the same compound, the NOEC with Oncorhynchus mykiss was 0.0064 mg/L; in the series with Tagia sp. (chronic/long-term, duration: 8 weeks), 1.68 mg/kg; in the series on Daphnia magna, 0.007 mg/L; in the series on Folsomia candida it was 250 mg/kg; in the series with Bibionidae it was 0.18 mg/L. Also, the LD50 in the series with Rattus norvegicus (acute, mortality) was greater than 5000 mg/kg-day; in the series with Apis mellifera it was greater than 200 µg/piece; in the series on Anas platyrhynchos it was greater than 2250 mg/kg-day. Also, in the series with Tagia sp. (acute, duration: 14 days, mortality), the LC50 was greater than 500 mg/kg. In the series with Colinus virginianus, this compound showed an NOEL of 59.5 mg/kg-day.
